# *1 amine or outer side, *2 acyl side, *3 side chain or, on linkers, in order; H or OH if unused. Where a SMILES comes first, the peptide text is derived from it. Bridges are numbered along the chain shown (N, C = ends). Roman numbers before positions name the chains, in order. X1 = O=C1c2c(O)ccc(O)c2C(=O)c2c(NCCN[*:2])ccc(NCCN[*:1])c21
# Tested on: lymphocytic leukemia P388
# Test: Lymphocytic Leukemia P388 Test
# Format: in vivo, BDF1 mice
# Settings: for Median Survival: BDF1 mice; for T/C × 100 (%): ratio of survival time treated/control; for response vs control in vivo at 0.75 mg/kg / response vs control in vivo at 1.5 mg/kg / response vs control in vivo at 3 mg/kg: Mus musculus, P388, ip, read-out: T/C × 100 (%)
# Procedure, shortened: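 BDF1 mice (5–6 per group) were inoculated i.p. with 10^6 P388 cells, then dosed i.p. on days 1, 5 and 9 at various doses. Survival was followed for 60 days, and median survival time and the treated/control (T/C) survival ratio were calculated.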
# [1] = dose 0.75 mg/kg intraperitoneally on days 1, 5 and 9
# [2] = dose 1.5 mg/kg intraperitoneally on days 1, 5 and 9
# [3] = dose 3 mg/kg intraperitoneally on days 1, 5 and 9
smiles,measurement,setting,value
"Br.Br.C[C@H](N)C(=O)NCC(=O)NCCNc1ccc(NCCNC(=O)CNC(=O)[C@H](C)N)c2c1C(=O)c1c(O)ccc(O)c1C2=O [Example 56, N,N'-[(9,10-Dihydro-5,8-dihydroxy-9,10-dioxo-1,4-anthracenediyl)bis(imino-2,1-ethanediyl)]bis[L-alanyl-glycinamine]dihydrobromide]",Median Survival,[1],21.0 days
same,T/C × 100 (%),[1],191%
same,Median Survival,[2],28.0 days
same,T/C × 100 (%),[2],255%
same,Median Survival,[3],32.5 days
same,T/C × 100 (%),[3],295%
"O=C(CNC(=O)CNC(=O)OCc1ccccc1)NCCNc1ccc(NCCNC(=O)CNC(=O)CNC(=O)OCc2ccccc2)c2c1C(=O)c1c(O)ccc(O)c1C2=O [Example 57, N,N'-[(9,10-Dihydro-5,8-dihydroxy-9,10-dioxo-1,4-anthracenediyl)bis(imino-2,1-ethanediyl)]bis[N-[(phenylmethoxy)carbonyl]glycyl]glycinamide]",Median Survival,[1],12.0 days
same,T/C × 100 (%),[1],109%
same,Median Survival,[2],14.0 days
same,T/C × 100 (%),[2],127%
same,Median Survival,[3],15.0 days
same,T/C × 100 (%),[3],136%
"Br.Br.NCC(=O)NCC(=O)NCCNc1ccc(NCCNC(=O)CNC(=O)CN)c2c1C(=O)c1c(O)ccc(O)c1C2=O [Example 58, N,N'-[(9,10-Dihydro-5,8-dihydroxy-9,10-dioxo-1,4-anthracenediyl)bis(imino-2,1-ethanediyl)]bis[glycyl-glycinamide]dihydrobromide]",Median Survival,[1],22.0 days
same,T/C × 100 (%),[1],200%
same,Median Survival,[2],21.5 days
same,T/C × 100 (%),[2],195%
same,Median Survival,[3],24.0 days
same,T/C × 100 (%),[3],218%
"CC(C)(C)OC(=O)NCC(=O)NCC(=O)NCC(=O)NCCNc1ccc(NCCNC(=O)CNC(=O)CNC(=O)CNC(=O)OC(C)(C)C)c2c1C(=O)c1c(O)ccc(O)c1C2=O [Example 59, N,N'-[(9,10-Dihydro-5,8-dihydroxy-9,10-dioxo-1,4-anthracenediyl)bis(imino-2,1-ethanediyl)]bis[N-[(1,1-dimethylethoxy)carbonyl]glycylglycyl]glycinamide]",Median Survival,[1],15.0 days
same,T/C × 100 (%),[1],136%
same,Median Survival,[2],15.5 days
same,T/C × 100 (%),[2],141%
same,Median Survival,[3],18.0 days
same,T/C × 100 (%),[3],164%
"NCC(=O)NCC(=O)NCC(=O)NCCNc1ccc(NCCNC(=O)CNC(=O)CNC(=O)CN)c2c1C(=O)c1c(O)ccc(O)c1C2=O.O=C(O)C(F)(F)F.O=C(O)C(F)(F)F [Example 60, N,N'-[(9,10-Dihydro-5,8-dihydroxy-9,10-dioxo-1,4-anthracenediyl)bis(imino-2,1-ethanediyl)]bis[glycylglycylglycinamide]bis(trifluoroacetate)]",Median Survival,[1],19.5 days
same,T/C × 100 (%),[1],177%
same,Median Survival,[2],23.0 days
same,T/C × 100 (%),[2],209%
same,Median Survival,[3],22.0 days
same,T/C × 100 (%),[3],200%
"Br.Br.CC(C)C[C@H](NC(=O)[C@@H]1CCCN1C(=O)CN)C(=O)NCC(=O)N1CCC[C@H]1C(=O)NCCNc1ccc(NCCNC(=O)[C@@H]2CCCN2C(=O)CNC(=O)[C@H](CC(C)C)NC(=O)[C@@H]2CCCN2C(=O)CN)c2c1C(=O)c1c(O)ccc(O)c1C2=O [Example 62, N,N'-[(9,10-Dihydro-5,8-dihydroxy-9,10-dioxo-1,4-anthracenediyl)bis(imino-2,1-ethanediyl)]bis[glycyl-L-prolyl-L-leucylglycyl-L-prolinamide]dihydrobromide]",Median Survival,[1],19.0 days
same,T/C × 100 (%),[1],190%
same,Median Survival,[2],22.0 days
same,T/C × 100 (%),[2],220%
same,Median Survival,[3],24.5 days
same,T/C × 100 (%),[3],245%
"Br.Br.C[C@H](NC(=O)[C@@H]1CCCN1C(=O)CNC(=O)CNC(=O)[C@@H]1CCCN1C(=O)CN)C(=O)NCCNc1ccc(NCCNC(=O)[C@H](C)NC(=O)[C@@H]2CCCN2C(=O)CNC(=O)CNC(=O)[C@@H]2CCCN2C(=O)CN)c2c1C(=O)c1c(O)ccc(O)c1C2=O [Example 64, N,N'-[(9,10-Dihydro-5,8-dihydroxy-9,10-dioxo-1,4-anthracenediyl)bis(imino-2,1-ethanediyl)]bis[glycyl-L-prolylglycylglycyl-L-prolyl-L-alaninamide]-dihydrobromide] (I: H-GPGGPA / II: H-GPGGPA; linker I:C-II:C via X1)",response vs control in vivo at 0.75 mg/kg,,195%
same,response vs control in vivo at 1.5 mg/kg,,205%
same,response vs control in vivo at 3 mg/kg,,255%
same,Median Survival,[1],19.5 days
same,Median Survival,[2],20.5 days
same,Median Survival,[3],25.5 days
CC(C)C[C@H](NC(=O)[C@H](C)NC(=O)OC(C)(C)C)C(=O)NCCNc1ccc(NCCNC(=O)[C@H](CC(C)C)NC(=O)[C@H](C)NC(=O)OC(C)(C)C)c2c1C(=O)c1c(O)ccc(O)c1C2=O [Example 65],Median Survival,[1],12.0 days
same,T/C × 100 (%),[1],109%
same,Median Survival,[2],12.0 days
same,T/C × 100 (%),[2],109%
same,Median Survival,[3],13.5 days
same,T/C × 100 (%),[3],123%
"CC(C)C[C@H](NC(=O)[C@H](C)N)C(=O)NCCNc1ccc(NCCNC(=O)[C@H](CC(C)C)NC(=O)[C@H](C)N)c2c1C(=O)c1c(O)ccc(O)c1C2=O.O=C(O)C(F)(F)F.O=C(O)C(F)(F)F [Example 66, N,N'-[(9,10-Dihydro-5,8-dihydroxy-9,10-dioxo-1,4-anthracenediyl)bis(imino-2,1-ethanediyl)]bis[L-alanyl-L-leucinamide]bis(trifluoroacetate)]",Median Survival,[1],19.0 days
same,T/C × 100 (%),[1],173%
same,Median Survival,[2],20.0 days
same,T/C × 100 (%),[2],182%
same,Median Survival,[3],28.0 days
same,T/C × 100 (%),[3],255%
"CC(C)C[C@H](NC(=O)[C@H](C)NC(=O)[C@H](C)NC(=O)OC(C)(C)C)C(=O)NCCNc1ccc(NCCNC(=O)[C@H](CC(C)C)NC(=O)[C@H](C)NC(=O)[C@H](C)NC(=O)OC(C)(C)C)c2c1C(=O)c1c(O)ccc(O)c1C2=O [Example 67, N,N'-[(9,10-Dihydro-5,8-dihydroxy-9,10-dioxo-1,4-anthracenediyl)bis(imino-2,1-ethanediyl)]bis[N-[(1,1-dimethylethoxy)carbonyl]-L-alanyl-L-alanyl-L-leucinamide]]",response vs control in vivo at 0.75 mg/kg,,155%
same,response vs control in vivo at 1.5 mg/kg,,165%
same,response vs control in vivo at 3 mg/kg,,160%
same,Median Survival,[1],15.5 days
same,Median Survival,[2],16.5 days
same,Median Survival,[3],16.0 days
CC(C)C[C@H](NC(=O)[C@H](C)NC(=O)[C@H](C)N)C(=O)NCCNc1ccc(NCCNC(=O)[C@H](CC(C)C)NC(=O)[C@H](C)NC(=O)[C@H](C)N)c2c1C(=O)c1c(O)ccc(O)c1C2=O.O=C(O)C(F)(F)F.O=C(O)C(F)(F)F [Example 68],Median Survival,[1],21.0 days
same,T/C × 100 (%),[1],210%
same,Median Survival,[2],21.5 days
same,T/C × 100 (%),[2],215%
same,Median Survival,[3],22.0 days
same,T/C × 100 (%),[3],220%
"CC(C)C[C@H](NC(=O)CNC(=O)CNC(=O)OCc1ccccc1)C(=O)NCCNc1ccc(NCCNC(=O)[C@H](CC(C)C)NC(=O)CNC(=O)CNC(=O)OCc2ccccc2)c2c1C(=O)c1c(O)ccc(O)c1C2=O [Example 69, N,N'-[(9,10-Dihydro-5,8-dihydroxy-9,10-dioxo-1,4-anthracenediyl)bis(imino-2,1-ethanediyl)]bis[N-[(phenylmethoxy)carbonyl]glycylglycyl-L-leucinamide]]",response vs control in vivo at 0.75 mg/kg,,170%
same,response vs control in vivo at 1.5 mg/kg,,170%
same,response vs control in vivo at 3 mg/kg,,180%
same,Median Survival,[1],17.0 days
same,Median Survival,[2],17.0 days
same,Median Survival,[3],18.0 days
"Br.Br.CC(C)C[C@H](NC(=O)CNC(=O)CN)C(=O)NCCNc1ccc(NCCNC(=O)[C@H](CC(C)C)NC(=O)CNC(=O)CN)c2c1C(=O)c1c(O)ccc(O)c1C2=O [Example 70, N,N'-[(9,10-Dihydro-5,8-dihydroxy-9,10-dioxo-1,4-anthracenediyl)bis(imino-2,1-ethanediyl)]bis[glycylglycyl-L-leucinamide]dihydrobromide]",Median Survival,[1],22.0 days
same,T/C × 100 (%),[1],220%
same,Median Survival,[2],22.5 days
same,T/C × 100 (%),[2],225%
same,Median Survival,[3],44.5 days
same,T/C × 100 (%),[3],445%
"C[C@H](N)C(=O)N[C@@H](C)C(=O)N[C@@H](C)C(=O)NCCNc1ccc(NCCNC(=O)[C@H](C)NC(=O)[C@H](C)NC(=O)[C@H](C)N)c2c1C(=O)c1c(O)ccc(O)c1C2=O.O=C(O)C(F)(F)F.O=C(O)C(F)(F)F [Example 73, N,N'-[(9,10-Dihydro-5,8-dihydroxy-9,10-dioxo-1,4-anthracenediyl)bis(imino-2,1-ethanediyl)]bis[L-alanyl-L-alanyl-L-alanine]bis(trifluoroacetate)]",Median Survival,[1],21.0 days
same,T/C × 100 (%),[1],200%
same,Median Survival,[2],24.5 days
same,T/C × 100 (%),[2],233%
same,Median Survival,[3],40.0 days
same,T/C × 100 (%),[3],381%
C[C@H](NC(=O)[C@H](CO)NC(=O)OC(C)(C)C)C(=O)NCCNc1ccc(NCCNC(=O)[C@H](C)NC(=O)[C@H](CO)NC(=O)OC(C)(C)C)c2c1C(=O)c1c(O)ccc(O)c1C2=O [Example 75],Median Survival,[1],18.5 days
same,T/C × 100 (%),[1],154%
same,Median Survival,[2],19.0 days
same,T/C × 100 (%),[2],158%
same,Median Survival,[3],21.0 days
same,T/C × 100 (%),[3],175%
